Results published in patent publication US7732607B2 (priority 2005, dated 2010).

Molecular target: human M3 receptors (Homo sapiens, UniProt P20309)
Format: binding
Details: human clonal line TE671/RD

Chain of human M3 receptors (P20309 whole entry): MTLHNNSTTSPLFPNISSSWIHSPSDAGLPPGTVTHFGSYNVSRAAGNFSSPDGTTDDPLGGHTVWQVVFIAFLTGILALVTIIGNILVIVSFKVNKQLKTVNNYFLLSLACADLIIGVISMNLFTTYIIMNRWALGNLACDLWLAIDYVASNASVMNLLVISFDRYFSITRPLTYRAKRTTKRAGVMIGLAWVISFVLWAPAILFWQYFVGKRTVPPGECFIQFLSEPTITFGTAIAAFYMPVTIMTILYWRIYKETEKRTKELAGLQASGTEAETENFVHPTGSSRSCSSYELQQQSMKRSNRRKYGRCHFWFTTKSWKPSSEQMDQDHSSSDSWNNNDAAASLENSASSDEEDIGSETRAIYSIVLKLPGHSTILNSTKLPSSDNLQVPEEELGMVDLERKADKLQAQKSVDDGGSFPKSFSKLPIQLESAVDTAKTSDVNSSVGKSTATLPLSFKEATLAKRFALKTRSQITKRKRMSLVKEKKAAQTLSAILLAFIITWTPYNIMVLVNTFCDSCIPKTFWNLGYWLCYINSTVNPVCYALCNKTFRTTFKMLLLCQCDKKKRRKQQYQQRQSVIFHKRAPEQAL

Structure (SMILES) | ability to inhibit [3H]QNB binding at muscarinic sites
O=C(c1cc2ccccc2o1)N1CC(c2cccnc2)C2C1C1CCN2CC1 (stereo not drawn) [Compound 1, 5-(Benzofuran-2-ylcarbonyl)-3-pyridin-3-yl-1,5-diazatricyclo[5.2.2.0<2,6>]undecane] | None of the compounds was able to inhibit [^3H]QNB binding
COc1cccc2cc(C(=O)N3CC(c4cccnc4)C4C3C3CCN4CC3)oc12 (stereo not drawn) [Compound 2, 5-(7-Methoxybenzofuran-2-ylcarbonyl)-3-pyridin-3-yl-1,5-diazatricyclo[5.2.2.0<2,6>]undecane] | None of the compounds was able to inhibit [^3H]QNB binding
O=C(c1c[nH]c2ccccc12)N1CC(c2cccnc2)C2C1C1CCN2CC1 (stereo not drawn) [Compound 4, 5-(1H-Indol-3-ylcarbonyl)-3-pyridin-3-yl-1,5-diazatricyclo[5.2.2.0<2,6>]undecane] | None of the compounds was able to inhibit [^3H]QNB binding
